Laboratory results taken from patent publication US6110962A, “11-aryl-benzo[B]naphtho[2,3-D]furans and 11-aryl-benzo[B]naphtho[2,3-D]thiophenes useful in the treatment of insulin resistance and hyperglycemia” (American Home Products Corporation, priority 1999, dated 2000).

Legend:
Human recombinant PTP1B = target: T1, Human recombinant PTP1B (Homo sapiens, UniProt P18031); assay type: biochemical; settings: read-out: IC50
T1 construct: made in house
T1 sequence (P18031 1-435): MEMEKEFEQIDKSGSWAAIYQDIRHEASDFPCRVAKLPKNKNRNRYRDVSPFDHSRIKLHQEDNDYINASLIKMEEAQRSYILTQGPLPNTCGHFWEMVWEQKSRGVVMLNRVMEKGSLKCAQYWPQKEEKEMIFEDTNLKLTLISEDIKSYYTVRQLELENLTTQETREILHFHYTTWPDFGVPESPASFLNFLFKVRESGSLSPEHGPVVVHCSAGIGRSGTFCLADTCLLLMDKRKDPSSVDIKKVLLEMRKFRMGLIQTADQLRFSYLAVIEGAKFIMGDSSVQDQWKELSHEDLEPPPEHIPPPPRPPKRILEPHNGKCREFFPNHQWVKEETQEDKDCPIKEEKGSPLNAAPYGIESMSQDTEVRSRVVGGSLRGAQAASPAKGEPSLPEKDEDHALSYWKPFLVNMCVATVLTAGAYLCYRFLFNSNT

[1] = tested on: rat hepatic microsomal PTPases; settings: PTPase activity, compound at 50 μM

| SMILES | IC50 (Human recombinant PTP1B) | % Change from Control [1] |
| --- | --- | --- |
| Oc1ccc(-c2c3ccccc3cc3sc4ccccc4c23)cc1O [Example 18, 4-(Benzo[b]naphtho[2,3-d]thiophen-11-yl)-benzene-1,2-diol] | 554 nM | -15.22% |
| Oc1c(Br)cc(-c2c3ccccc3c(Br)c3sc4ccccc4c23)cc1Br [Example 21, 2,6-Dibromo-4-(6-bromo-benzo[b]naphtho[2,3-d]thiophen-11-yl)-phenol] | 384 nM | -32.41% |
| CC(=O)Oc1ccc(-c2c3ccccc3c(Br)c3sc4ccccc4c23)cc1 [Example 37, 4-(6-Bromo-benzo[b]naphtho[2,3-d]thiophen-11-yl-phenol)acetate(ester)] | 1180 nM | -3.02% |
| CC(C)c1cc(-c2c3ccccc3c(Br)c3sc4ccccc4c23)cc(C(C)C)c1O [Example 40, 4-(6-Bromo-benzo[b]naphtho[2,3-d]thiophen-11-yl)-2,6-diisopropyl-phenol] | 1100 nM | -1.40% |
| Oc1ccc(-c2c3ccccc3c(Br)c3sc4ccccc4c23)cc1 [Example 41, 4-(6-Bromo-benzo[b]naphtho[2,3-d]thiophen-11-yl)-phenol] | 1080 nM | -39.32% |
| Oc1cccc(-c2c3ccccc3c(Br)c3sc4ccccc4c23)c1 [Example 42, 3-(6-Bromo-benzo[b]naphtho[2,3-d]thiophen-11-yl)-phenol] | 1500 nM | -21.28% |
| Oc1ccc(-c2c3ccccc3c(Br)c3sc4ccccc4c23)cc1O [Example 43, 4-(6-bromo-benzo[b]naphtho[2,3-d]thiophen-11-yl)-benzene-1,2-diol] | 189 nM | -14.62% |
| N#Cc1c2ccccc2c(-c2cc(Br)c(O)c(Br)c2)c2c1sc1ccccc12 [Example 58, 11-(3,5-Dibromo-4-hydroxy-phenyl)-benzo[b]naphtho[2,3-d]thiophene-6-carbonitrile] | 1010 nM | -43.32% |
| Oc1c(Br)cc(-c2c3ccccc3c(I)c3sc4ccccc4c23)cc1Br [Example 59, 2,6-Dibromo-4-(6-iodo-benzo[b]naphtho[2,3-d]thiophen-11-yl)-phenol] | 612 nM | -35.46% |
| Oc1c(Br)cc(-c2c3ccccc3c(Cl)c3sc4ccccc4c23)cc1Br [Example 60, 2,6-Dibromo-4-(6-chloro-benzo[b]naphtho[2,3-d]thiophen-11-yl)-phenol] | 129 nM | -25.07% |
| Cc1c2ccccc2c(-c2cc(Br)c(O)c(Br)c2)c2c1sc1ccccc12 [Example 62, 2,6-Dibromo-4-(6-methyl-benzo[b]naphtho[2,3-d]thiophen-11-yl)-phenol] | 654 nM | -40.14% |

Now from value to compound:

| IC50 (Human recombinant PTP1B) | % Change from Control [1] | SMILES |
| --- | --- | --- |
| 904 nM | -47.53% | COc1c2ccccc2c(-c2cc(Br)c(O)c(Br)c2)c2c1sc1ccccc12 [Example 63] |
| 347 nM | -15.90% | Oc1c(Br)cc(-c2c3ccccc3c(Sc3ccccc3)c3sc4ccccc4c23)cc1Br [Example 64, 2,6-Dibromo-4-(6-phenylsulfanyl-benzo[b]naphtho[2,3-d]thiophen-11-yl)-pheno] |
| 1020 nM | -26.32% | Oc1cc(-c2c3ccccc3c(Br)c3sc4ccccc4c23)ccc1Br [Example 68, 2-Bromo-5-(6-bromo-benzo[b]naphtho[2,3-d]thiophen-11-yl)-phenol] |
| 79 nM | -35.74% | Oc1cc(Br)c(-c2c3ccccc3c(Br)c3sc4ccccc4c23)cc1O [Example 71, 4-Bromo-5-(6-bromo-benzo[b]naphtho[2,3-d]thiophen-11-yl)-benzene-1,2-diol] |
| 1990 nM | -47.69% | N#Cc1cc(-c2c3ccccc3cc3sc4ccccc4c23)cc(C#N)c1OCC(=O)O [Example 81, [(4-Benzo[b]naphtho[2,3-d]thiophen-11-yl)-2,6-dicyano-phenoxy]-acetic acid] |
